In brackets after ≈: the same amount, converted by molar mass.
What was measured:
[1] = tested on: Mycobacterium tuberculosis; assay: Antibacterial activity against Mycobacterium tuberculosis H37Rv assessed as reduction in bacterial growth; format: functional, organism-based
[2] = tested on: Mycobacterium tuberculosis; assay: Antibacterial activity against Mycobacterium tuberculosis clinical isolate N0145 assessed as reduction in bacterial growth; format: functional, organism-based
[3] = tested on: Mycobacterium tuberculosis; assay: Antibacterial activity against Mycobacterium tuberculosis H37Rv mc2 6206 assessed as inhibition of bacterial growth by resazurin dye based assay; format: functional
[4] = tested on: Mycobacterium tuberculosis; assay: Antimycobacterial activity against Mycobacterium tuberculosis Rv0678; format: functional
[5] = tested on: Mycobacterium tuberculosis; assay: Antibacterial activity against Mycobacterium tuberculosis H37Rv assessed as reduction in bacterial growth incubated for 7 days by broth dilution method; format: functional; conditions: 168 h, time 7 day
[6] = tested on: Mycobacterium tuberculosis; assay: Antibacterial activity against Mycobacterium tuberculosis H37Rv cytochrome bd oxidase assessed as reduction in total cellular ATP level; format: functional, organism-based
[7] = tested on: Mycobacterium tuberculosis; assay: Antitubercular activity against XDR Mycobacterium tuberculosis assessed as bacterial growth inhibition; format: functional
[8] = Oral bioavailability in mouse; format: ADME, organism-based; conditions: in vivo
[9] = Half life in mouse; format: ADME, organism-based; conditions: in vivo
[10] = tested on: Mycobacterium tuberculosis; assay: Antitubercular activity against Mycobacterium tuberculosis H37Rv assessed as inhibition of bacterial growth; format: functional
[11] = tested on: Mycobacterium tuberculosis; assay: Antibacterial activity against Mycobacterium tuberculosis clinical isolate N0145 assessed as reduction in ATP level; format: functional, organism-based
[12] = tested on: Mycobacterium tuberculosis; assay: Inhibition of wild type Mycobacterium tuberculosis mc2 6020 cytochrome bd oxidase assessed as inhibition of oxygen consumption rate at 10 to 25 uM measured after 5 days by Methylene blue dye based assay; conditions: dose 10-25 µM, time 5.0 day
[13] = tested on: Mycobacterium tuberculosis; assay: Antibacterial activity against Mycobacterium tuberculosis H37Rv assessed as inhibition of bacterial growth; format: functional

Q: Which results are given for `CC(C)(C)c1ccc(CCNc2ncnc3ccsc23)cc1`?
A: IC50 [1]: 5.8 µM; IC50 [2]: 8.5 µM

Q: What does the source list for `CC(C)(C)c1ccc(CCNc2ncnc3ccccc23)cc1`?
A: IC50 [1]: 5.8 µM; IC50 [2]: 0.1 µM

Q: With `Fc1ccc2c(NCCc3ccc(OC(F)(F)F)cc3)ncnc2c1` as the compound, how does the IC50 [1] read?
A: Its IC50 is 7.6 µM.

Q: And the IC50 [2]?
A: Its IC50 is 0.2 µM.

Q: Which MIC [3] does the source give for `NC(=O)NC(=O)c1nc(-c2cc3ccccc3o2)c(N)nc1N` here?
A: Its MIC is 9 µM (≈ 2.81 µg/mL).

Q: And the MIC [4]?
A: The MIC was 12 µM (≈ 3.75 µg/mL).

Q: What about the MIC [5] of the same compound?
A: Its MIC is 4 µM (≈ 1.25 µg/mL).

Q: What does the source list for `FC(F)(F)c1ccc(Oc2ccc(Nc3ncnc4ccccc34)cc2)cc1`?
A: IC50 [6]: 2.8 µM; MIC [7]: ≤ 1 µM; bioavailability [8]: 58%; half-life [9]: 64 h

Q: For `CCc1nc2ccc(Cl)cn2c1C(=O)NCc1ccc(N2CCC(c3ccc(OC(F)(F)F)cc3)CC2)cc1` [TELACEBEC], which MIC [10] is on record?
A: The MIC was 0.0015 µM.

Q: What about the IC50 [11] of the same compound?
A: Its IC50 is 0.1 µM.

Q: And the inhibition [12]?
A: The inhibition was 60%.

Q: With `CC(C)=CCC/C(C)=C/CC/C(C)=C/Cc1c(C)[nH]c2ccccc2c1=O` [AURACHIN D] as the compound, how does the MIC [10] read?
A: The MIC was > 100 µg/mL.

Q: And the MIC [13]?
A: Its MIC is > 100 µg/mL.

Q: And the inhibition [12]?
A: Its inhibition is 60%.

From ChEMBL document CHEMBL5344478, “Cytochrome bd oxidase: an emerging anti-tubercular drug target” (RSC Med Chem, 2024)
